# Where a name gives a salt, the structure may show the parent alone.
# Target: T1, human CCR5 (Homo sapiens, UniProt P51681)
# T1 construct: expressed in transfected cells; host or cells: CHO-dhfr(-) cells stably transfected with pEF-BOS-bsr/hCCR5
# Test: Inhibition test on the binding of RANTES to CCR5 (RANTES-induced transient increase of Ca ion)
# Format: cell-based
# Conditions: human CCR5 stably over-expressing CHO cell; recombinant human RANTES 10 nM; intracellular Ca2+ transient increase
# Procedure: (1) Isolation of Human CCR5 Gene
# Human placental cDNA was prepared using Marathon cDNA amplification kit (Clontech). PCR primers hCCR5Xbal-F1: 5′-[…]-3′ (SEQ ID NO:1) and hCCR5Xbal-R1: 5′-[…]-3′ (SEQ ID NO:2) were designed based on the sequence of GenBank U54994.
# Using the human placental cDNA as the template and using Ex Taq (Takara), PCR reaction (2 minutes at 95° C.→(30 seconds at 95° C., 45 seconds at 60° C., 1 minute at 72° C.)×35 times) was carried out. The thus amplified PCR product was subjected to a 1% agarose gel electrophoresis, purified using QIAquick Gel Extraction Kit (QUIAGEN) and then digested with a restriction enzyme Xbal. The digested fragments were ligated to an expression vector pEF-BOS-bsr using DNA Ligation Kit Ver. […]
# The thus established human CCR5 stably over-expressing CHO cell (CCR5/CHO cell) was suspended in Ham's F-12 medium containing FBS (10%) and dispensed in […] portions into a 96 well plate. […] Transient increase in the intracellular Ca^2+ concentration induced by the human RANTES was measured using a Ca^2+ detector for 96 well use (Hamamatsu Photonics), and inhibition ratio (%) of the test compound was calculated by the following calculation formula. Inhibition ratio=(Ec−Ea)/Ec×100 • Ec: measured value of Ca^2+ transient increase by RANTES • Ea: measured value of Ca^2+ transient increase by RANTES when a test compound was added.
# T1 sequence (P51681 whole entry): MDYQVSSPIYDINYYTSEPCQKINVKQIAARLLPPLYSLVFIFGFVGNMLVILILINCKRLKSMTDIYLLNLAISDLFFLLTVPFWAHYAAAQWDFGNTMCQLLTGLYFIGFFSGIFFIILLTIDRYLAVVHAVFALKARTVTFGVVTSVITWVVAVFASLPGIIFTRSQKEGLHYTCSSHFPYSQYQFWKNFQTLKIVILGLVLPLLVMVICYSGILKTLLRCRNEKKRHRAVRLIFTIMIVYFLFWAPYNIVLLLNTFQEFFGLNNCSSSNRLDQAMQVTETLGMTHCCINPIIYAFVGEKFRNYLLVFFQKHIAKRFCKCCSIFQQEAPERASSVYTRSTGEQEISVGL
structure (smiles),measurement,value
"CCCCN1C(=O)[C@@H]([C@H](O)C(C)C)NC(=O)C12CCN(Cc1ccc(Oc3ccccc3)nc1)CC2 [Example 2, (3R)-1-butyl-2,5-dioxo-3-((1R)-1-hydroxy-2-methylpropyl)-9-(6-phenyloxypyridin-3-ylmethyl)-1,4,9-triazaspiro[5.5]undecane.2hydrochloride]",IC50,0.027 µM
"CCCCN1C(=O)[C@H]([C@@H](O)C(C)C)NC(=O)C12CCN(Cc1ccc(Oc3ccccc3)nc1)CC2 [Example 3, (3S)-1-butyl-2,5-dioxo-3-((1S)-1-hydroxy-2-methylpropyl)-9-(6-phenyloxypyridin-3-ylmethyl)-1,4,9-triazaspiro[5.5]undecane.2hydrochloride]",IC50,0.37 µM

# Source: patent US7053090B2, “Triazaspiro[5.5]undecane derivatives and drugs containing the same as the active ingredient” (Ono Pharmaceutical Co., Ltd., priority 2001, dated 2006)
